Reference: patent US20180015075A1, “METHODS AND COMPOSITIONS FOR TREATMENT OF VENOUS MALFORMATION” (Children's Hospital Medical Center, priority 2016, published 2018)
Where two headings read alike, the source gives them in different places.

Tests used:
Pik3ca^H1047R VM lesions = conditions: mouse, in vivo; cited from earlier work
[1] = tested on: HUVEC-TIE2-L914F-GFP vascular channels; test: Fibrin gel bead assay; type: cell-based, human
Procedure: Assay was performed as described(34). Briefly, coated the beads with HUVEC-GFP or HUVEC-TIE2-L914F-GFP cells (2500 beads with 1×10^6 cells) and mixed coated beads in fibrinogen solution at a concentration of ˜500 beads/ml. Then 0.625 Units/mL of thrombin and 0.5 ml beads/fibrinogen suspension were added per well in 24-well plate successively. After dotting in the 37° C.-incubator, added 1 ml EGM-2 medium and 20,000 fibroblasts per well on the top. Then beads treated by adding DMSO, Ponatinib, rapamycin or combination in the medium

Structure (SMILES)	VM lesion growth (Pik3ca^H1047R VM lesions)	cell apoptosis (cleaved caspase-3 positive cells) (Pik3ca^H1047R VM lesions)	tube formation (tube area at day 11) [1]	vascular/tube area expansion from day 8 to 14 [1]	vascular/tube area expansion from day 8 to 14 ([1]; 100 nM Ponatinib or 10 nM rapamycin added from day 8, vehicle 54.50±3.81%)
Cc1nc(NC(=O)N2CCC[C@H]2C(N)=O)sc1-c1ccnc(C(C)(C)C(F)(F)F)c1 [BYL719]	strongly inhibited VM lesion growth	increased the number of cleaved caspase-3 positive cells			
CO[C@H]1C[C@@H]2CC[C@@H](C)[C@@](O)(O2)C(=O)C(=O)N2CCCC[C@H]2C(=O)O[C@H]([C@H](C)C[C@@H]2CC[C@@H](OCCO)[C@H](OC)C2)CC(=O)[C@H](C)/C=C(\C)[C@@H](O)[C@@H](OC)C(=O)[C@H](C)C[C@H](C)/C=C/C=C/C=C/1C [Everolimus, 42-O-(2-Hydroxyethyl)-rapamycin]	prevented lesion growth	did not induce cell apoptosis			
Cc1ccc(C(=O)Nc2ccc(CN3CCN(C)CC3)c(C(F)(F)F)c2)cc1C#Cc1cnc2cccnn12 [Ponatinib, 3-(2-imidazo[1,2-b]pyridazin-3-ylethynyl)-4-methyl-N-[4-[(4-methyl-1-piperazinyl)methyl]-3-(trifluoromethyl)phenyl]-benzamide]			almost completely inhibited tube formation	14.79±4.53%	
CO[C@H]1C[C@@H]2CC[C@@H](C)[C@@](O)(O2)C(=O)C(=O)N2CCCC[C@H]2C(=O)O[C@H]([C@H](C)C[C@@H]2CC[C@@H](O)[C@H](OC)C2)CC(=O)[C@H](C)/C=C(\C)[C@@H](O)[C@@H](OC)C(=O)[C@H](C)C[C@H](C)/C=C/C=C/C=C/1C [Sirolimus, Rapamycin]					20.25±3.23%
